Measurements taken from patent publication US12344620B2, “BRD4 inhibitor compound in solid form and preparation method therefor and use thereof” (CSPC ZHONGQI PHARMACEUTICAL TECHNOLOGY (SHIJIAZHUANG) CO., …, priority 2019, dated 2025).
Where two headings read alike, the source gives them in different places.

Columns and labels:
[1] = In vivo pharmacokinetics test in mice; conditions: mouse, plasma, po; female Balb/c mice, intragastric, 3 mg/kg; read-out: Bioavailability F
Method: (§1) Female Balb/c mice were used as test animals. The compound of formula (I) was administrated intravenously and intragastrically to mice, then the drug concentrations in the plasma at different time points were determined by the LC/MS/MS method. The in vivo pharmacokinetic behavior of the compound of formula (I) in mice was studied, and its pharmacokinetic characteristics were evaluated.
Sixteen healthy adult female Balb/c mice were divided into four groups according to the principle of similar body weight, with four mice in each group. The animals were purchased from Shanghai Lingchang BioTech Co., Ltd. of Shanghai SLAC Laboratory Animal Co., Ltd., and the animal production license number was SCXK (Shanghai) 2013-0018.
An appropriate amount of the sample was taken, 5% final volume of DMSO was added, and then 95% final volume of 20% HP-β-CD was added. The mixture was ultrasonically stirred to obtain a 0.5 mg/mL clear solution. After filtration, it was used for the intravenous administration. […]
(§2) The LC/MS/MS method was used to measure the content of the compound to be tested in the plasma after the intravenous and intragastric administration to the mice. The linear range of the method was 2.00-6000 nmol/L; the plasma samples were analyzed after the protein precipitation by acetonitrile treatment.

[2] = test system: Human breast cancer MDA-MB-231_luc cells; assay: In vivo pharmacodynamics, MDA-MB-231_luc subcutaneous xenograft tumor model; conditions: 50 mg/kg PO BID x 21 days
Method: • Species: mouse • Strain: BALB/c nude mouse • Week-age and weight: 6-8 weeks of age, 18-22 grams of body weight • Sex: Female • Supplier: Shanghai Sippr-BK laboratory animal Co. Ltd.
Human breast cancer MDA-MB-231_luc cells were cultured in monolayer in vitro and the culture conditions were RPMI-1640 culture medium (supplier: Gibco; article number: 22400-089; manufacturing batch number: 4868546) with 10% fetal bovine serum, 100 U/ml penicillin and 100 μg/mL streptomycin. The culture was performed at 37° C. in 5% CO2. Conventional digestion treatment with pancreatin-EDTA for passage was carried out twice a week. When the cells were in the exponential growth phase, the cells were harvested, counted, and inoculated. […]
The experiment index was to investigate whether tumor growth was inhibited, delayed or cured. Tumor diameter was measured twice a week with vernier calipers. […]
The tumor inhibition effect of the compound was evaluated by TGI (%) or relative tumor proliferation rate T/C (%). […]
Relative tumor proliferation rate T/C (%) was calculated according to the below equation: T/C %=TRTV/CRTV×100% (TRTV: RTV of the treatment group; CRTV: RTV of the negative control group). The relative tumor volume (RTV) was calculated according to the results of the tumor measurement. […]

[3] = In vivo pharmacokinetics test in rat; conditions: plasma, male SD rats, crystalline form A used; for AUC(0-inf): read-out: Area under curve (0-inf) AUC0-inf; for AUC(0-t): read-out: Area under curve (0-t) AUC0-last; for half-life: read-out: Half life T1/2 (converted)
Method: as §1, with “Male SD rats” for “Female Balb/c mice”, “rats, and” for “mice,”, “rats” for “mice”
1.1 Experiment Drug: The Compound of Formula (I) (the Crystalline Form A)
4 healthy adult male SD rats were divided into 2 groups according to the similar weight principle, with 2 rats in each group. The animals were commercially available from Beijing Weitonglihua Laboratory Animals Ltd., animal production license number: SCXK (Beijing) 2016-0006.
An appropriate amount of the sample was taken, 5% final volume of DMSO was added, and then 95% final volume of 20% HP-β-CD was added. The mixture was ultrasonically stirred to obtain a 0.5 mg/mL clear solution. After filtration, it was used for the intravenous administration.
An appropriate amount of the sample was taken, and dissolved in a 0.5% sodium carboxymethyl cellulose solution. The mixture was ultrasonically stirred to obtain a 1 mg/mL homogeneous suspension, which was used for the intragastric administration.
Four male SD rats were divided into two groups. After fasting overnight, the first group was administered intravenously with the administration volume of 4 mL/kg and the dosage of 2 mg/kg. The second group was administered intragastrically with the administration volume of 10 mL/kg and the dosage of 10 mg/kg.
After the male SD rats were intravenously administrated, 100 μL of blood was taken at each time point of 0.0833, 0.25, 0.5, 1, 2, 4, 6, 8 and 24 hours, and placed in test tubes containing 2 μL of EDTA-K2; and after the SD rats were intragastrically administrated, 100 μL of blood was taken at each time point of 0.0833, 0.25, 0.5, 1, 2, 4, 6, 8 and 24 hours, and placed in test tubes containing 2 μL of EDTA-K2. The tube was centrifuged at 3000 g for 15 minutes to separate the plasma, and the separated plasma was stored at −60° C. Animals could be fed 2 hours after the administration.
as §2, with “rats.” for “mice.”

## Cc1sc2c(c1C)C(c1ccc(Cl)cc1)=N[C@@H](CC(=O)Nc1ccc3c(c1)COC3=O)c1nnc(C)n1-2 [Compound of formula (I)]
[1]
  bioavailability: 37.5%
[2]
  change in body weight of the animals: no significant change
  tolerability: well tolerated
[3]; intravenous, 2 mg/kg, read-out: Apparent distribution Vdss
  Vd: 1.48 L/kg
[3]; intravenous, 2 mg/kg
  AUC(0-inf): 2.22 µM·h
  AUC(0-t): 2.21 µM·h
  half-life: 0.683 h
[3]; intravenous, 2 mg/kg, read-out: Clearance rate Cl
  clearance: 28.3 mL/min/kg
[3]; po, intragastric, 10 mg/kg
  bioavailability: 29.3%
  AUC(0-inf): 3.25 µM·h
  AUC(0-t): 3.22 µM·h
  half-life: 1.01 h
[3]; po, intragastric, 10 mg/kg, read-out: Drug concentration in blood Cmax
  Cmax: 1160 nM
[3]; po, intragastric, 10 mg/kg, read-out: Time to peak Tmax
  Tmax: 1 h
